Measured values reported in US6806267B1, “Apoptosis-inducing compounds” (priority 1998, dated 2004).

Tested on: Cytochrome C
Assay: Cytochrome C Western blot, HL-60 cytosol
Format: cell-based, human
Settings: HL-60 cells
Procedure: Cells (15×10^6) were harvested by centrifugation at 1800 g for 10 min at 4° C. After being washed once with ice-cold phosphate-buffered saline, the cell pellet was suspended in 100 μl of ice-cold buffer A (20 mM Hepes, pH 7.5, 10 mM KCl, 1.5 mM MgCl2, 1 mM sodium EDTA, 1 mM sodium EGTA, 1 mM dithiotreitol and 0.1 mM phenylmethylsulfonyl fluoride) supplemented with protease inhibitors (5 μg/ml pepstatin A, 10 μg/ml leupeptin and 2 μg/ml of aprotinin). The cells were left to sit on ice for 15 min and then centrifuged at 20,000 g for 20 min. The resulting supernatant was stored at −70° C. until measurement of cytochrome C. Protein determination was measured by using the Bradford assay. Equal amounts of protein were resolved by SDS-polyacrylamide gel electrophoresis in 15% gels and transferred onto nitro-cellulose. Membranes were blocked with phosphate-buffered saline/5% (w/v) dry milk and probed with anti-cytochrome C antibody. Blots were washed, incubated with goat anti-mouse IgG peroxidase conjugate and developed by ECL according to the manufacturer's recommendations.

CN(C)C(=O)OC1=C(c2cccc3ccccc23)Oc2ccccc2-n2cccc21 [PBOX-6, 7-((Dimethylcarbamoyl)oxy)-6-(1-naphthyl)pyrrolo[2,1-d][1,5]benzoxazepine]
Cytochrome C in the cytosol: accumulation of Cytochrome C in the cytosol
